Literature values as cited in US7413690B1, “Process and apparatus for producing spherical pellets using molten solid matrices” (The University of Mississippi, priority 2003, dated 2008).

Structure (SMILES)	water solubility (in words)
C[C@@H]1C[C@H]2[C@@H]3CCC4=CC(=O)C=C[C@]4(C)[C@@]3(F)[C@@H](O)C[C@]2(C)[C@@]1(O)C(=O)CO [Dexamethasone]	water insoluble
Cn1c(=O)c2[nH]cnc2n(C)c1=O [theophylline]	water soluble
